Patent publication US11938168B2, “Ophthalmic compositions and methods of use therefor” (Auckland Uniservices Limited, priority 2015, dated 2024)

How the values were obtained:
keratocytes = test: TGFβ3 and dexamethasone tested separately, collagen type II production; type: cell-based; details: agents tested separately
[1] = system: mink lung epithelial (Mv1Lu) cells; details: exemplary activity; cited from earlier work

Compound: C[C@@H]1C[C@H]2[C@@H]3CCC4=CC(=O)C=C[C@]4(C)[C@@]3(F)[C@@H](O)C[C@]2(C)[C@@]1(O)C(=O)CO [dexamethasone, reference compound]
- collagen type II production in keratocytes (keratocytes): no collagen type II production

Compound: TGFβ3: TGFβ3 polypeptide, SEQ ID NO:1; recombinant human TGFβ3 from commercial sources (Abcam, ab52313)
- ED50, inhibition of Mv1Lu cell proliferation [1]: ≤ 0.05 µg/mL
- collagen type II production in keratocytes (keratocytes): no collagen type II production
